Source: patent publication US9410100B2, “Tritylated ethers” (ANGUS Chemical Company, priority 2012, dated 2016)

Columns and labels:
[1] = Solubility studies of functionalized tritylated phenol ethers in solvents; assay type: physicochemical
Experimental: The solubility properties of functionalized tritylated phenol ethers were determined by mixing 0.1 gram samples of sample in 0.9 grams of solvent. The mixtures were warmed at 60° C. for a few minutes to make homogeneous solutions. The solutions were cooled back to room temperature, and then they were placed into a freezer at −10° C. The solutions were checked daily to see if crystallization had occurred.

melting point [°C] | Solubility at RT ([1]; 10 wt % in 1-Octanol, cooled to room temperature) | Solubility at 60 C. ([1]; 10 wt % in 1-Octanol, warmed at 60 C) | Solubility at RT ([1]; 10 wt % in AROMATIC 200, cooled to room temperature) | Solubility at 60 C. ([1]; 10 wt % in AROMATIC 200, warmed at 60 C) | Solubility at RT ([1]; 10 wt % in DMAc, cooled to room temperature) | Solubility at 60 C. ([1]; 10 wt % in DMAc, warmed at 60 C) | Solubility at RT ([1]; 10 wt % in DPGME, cooled to room temperature) | Solubility at 60 C. ([1]; 10 wt % in DPGME, warmed at 60 C) | Solubility at RT ([1]; 10 wt % in NMP, cooled to room temperature) | Solubility at 60 C. ([1]; 10 wt % in NMP, warmed at 60 C) | Solubility at RT ([1]; 10 wt % in Tetralin, cooled to room temperature) | Solubility at 60 C. ([1]; 10 wt % in Tetralin, warmed at 60 C) | Structure (SMILES)
81 to 84 | soluble | soluble | insoluble | insoluble | soluble | soluble | soluble | soluble | soluble | soluble | insoluble | soluble | OCCCCCCOc1ccc(C(c2ccccc2)(c2ccccc2)c2ccccc2)cc1OCCCCCCO [Ex. 4, 6,6′-((4-trityl-1,2-phenylene)bis(oxy))bis(hexan-1-ol)]
158 to 161 | – | – | – | – | – | – | – | – | – | – | – | – | OCCCCCCOc1ccc(C(c2ccccc2)(c2ccccc2)c2ccccc2)cc1 [compound 1, 6-(4-Tritylphenoxy)hexan-1-ol]
